Columns and labels:
[1] = test system: non-small cell lung cancer cell line H1299; assay: Alamar Blue cell proliferation assay, H1299; assay type: cell-based
Method: (§1) For experiments in 384 wells plates the cells were seeded at a density of 5×10^3 cells/ml in Falcon 384-well culture plates (Life Technologies, Merelbeke, Belgium), black with clear bottom, in 45 μl culture medium. Cells were allowed to adhere to plastic for 24 hr. The tested compound was pre-diluted (1/50 in culture medium) and 5 μl pre-diluted compound was added to the wells. Following 4-day incubation, 10 μl of the Alamar Blue solution was added to each well and the cells were further incubated for 5 hrs (A2780) at 37° C. The fluorescence intensity was measured for each well with a Fluorescence plate reader (Fluorskan, Labsystems, 540 nm excitation and 590 nm emission)
(§2) The antiproliferative activity was calculated as percentage of remaining viable cells in treated versus control (untreated cells) conditions. Within an experiment, the result for each experimental condition is the mean of 3 replicate wells. When appropriate, the experiments were repeated to establish full concentration-response curves. When appropriate, IC50-values (concentration of the drug, needed to reduce cell growth to 50% of the control) were computed using probit analysis for graded data (Finney, D. J., Probit Analyses, 2nd Ed. Chapter 10, Graded Responses, Cambridge University Press, Cambridge 1962). Herein the effects of test compounds are expressed as pIC50 (the negative log value of the IC50-value (M)) (see Table 5A).
(§3) Compounds were also tested according to the above protocol but using other cell lines: colorectal cancer cell line HCT116, non-small cell lung cancer cell line H1299, human prostate cancer cell line DU145.

[2] = test system: A2780 ovarian cancer cells; assay: Alamar Blue cell proliferation assay, A2780; assay type: cell-based, human; settings: 4-day incubation; for IC50: Homo sapiens, A2780, 96 h, read-out: A2780 cell proliferation inhibition pIC50 (converted)
Method: The human A2780 ovarian cancer cells were a kind gift from Dr. T. C. Hamilton (Fox Chase Cancer Centre, Pennsylvania, U.S.A.). The cells were cultured in RPMI 1640 medium supplemented with 2 mM L-Glutamine, 50 μg/ml gentamicin and 10% fetal calf serum.
Potassium Phosphate Buffer 0.1 M (PPB) was made as follows: 2.72 gram KH2PO4 and 13.86 gram K2HPO4 were dissolved in 500 ml milli-Q H2O, the pH was adjusted to pH 7.4 and the volume was brought to 1 liter with milli-Q H2O; the buffer was filter sterilised and stored at room temperature. Resazurin stock solution (PPB-A) was prepared fresh by dissolving 45 mg resazurin in 15 ml PBS. 30 mM potassium ferricyanide (PPB-B) was prepared by dissolving 0.987 gram potassium ferricyanide in 100 ml PPB. 30 mM potassium ferrocyanide (PPB-C) was prepared by dissolving 1.266 gram potassium ferrocyanide in 100 ml PPB.
Mixture of PPB-A, PPB-B and PPB-C was prepared by mixing equal volumes of the respective solutions. Resazurin work solution (herein termed “Alamar Blue” solution) was prepared by diluting said mixture 20×(vol/vol) in PPB and filter sterilising; the Alamar Blue solution could be kept at 4° C. for a maximum of 2 weeks.
as §1, §2

[3] = test system: colorectal cancer cell line HCT116; assay: Alamar Blue cell proliferation assay, HCT116; assay type: cell-based; settings: for IC50: Homo sapiens, HCT-116, HCT116 cells, read-out: HCT116 cell proliferation inhibition pIC50 (converted)
Method: as §1, §2, §3

p53 in A2780 cells = assay: p53 ELISA (preservation of p53 in A2780 cells); assay type: cell-based, human; settings: 16 hours treatment; for minimal effective concentration: Homo sapiens, A2780, 16 h, read-out: p53-elisa LAD (lowest dose giving at least 140% of the value for p53 present in the control)
Method: The capacity of the present compounds to preserve p53 in A2780 cells was measured with the p53 enzyme linked immunosorbent assay. The p53 assay is a “sandwich” enzyme immunoassay employing two polyclonal antibodies. A polyclonal antibody, specific for the p53 protein, has been immobilized onto the surface of the plastic wells. Any p53 present in the sample to be assayed will bind to the capture antibody. The biotinylated detector polyclonal antibody also recognizes p53 protein, and will bind to any p53, which has been retained by the capture antibody. The detector antibody, in turn, is bond by horseradish peroxidase-conjugated streptavidin. The horseradish peroxidase catalyses the conversion of the chromogenic substrate o-phenylene diamine, the intensity of which is proportional to the amount of p53 protein bond to the plate. The colored reaction product is quantified using a spectrophotometer. Quantitation is achieved by the construction of a standard curve using known concentrations of purified recombinant HIS tagged p53 protein (see example C.1.).
A2780 cells (ATCC) were cultivated in RPMI 1640 supplemented with 10% fetal calf serum (FCS), 2 mM L-glutamine and gentamycin at 37° C. in a humidified incubator with 5% CO2.
A2780 cells were seeded at 20.000 cells per well in a 96 well plate, cultured for 24 hours and treated with compound for 16 hours at 37° C. in a humidified incubator. After incubation, the cells were washed once with phosphate-buffered saline and 30 μl, per well, low salt RIPA buffer (20 mM tris, pH7.0, 0.5 mM EDTA, 1% Nonidet P40, 0.5% DOC, 0.05% SDS, 1 mM PMSF, 1 μg/ml aprotinin and 0.5 μ/ml leupeptin) was added. Plates were placed on ice for 30 minutes to complete the lysis. p53 protein was detected in de lysates by using the sandwich ELISA, described below.
High binding polystyrene EIA/RIA 96 well plates (Costar 9018) were coated with the capture antibody pAb1801 (Abcam ab28-100) at a concentration of 1 μg/ml in coating buffer (0.1 M NaHCO3 pH8.2), 50 μl per well. The antibody was allowed to adhere overnight at 4° C. Coated plates were washed once with phosphate-buffered saline (PBS)/0.05% Tween 20 and 300 μl of blocking buffer (PBS, 1% bovine serum albumins (BSA)) was added, for an incubation period of 2 hours at room temperature. Dilutions of purified recombinant HIS tagged p53 protein, ranging from 3-200 ng/ml, were made in blocking buffer and used as standards.
Plates were washed twice with PBS/0.05% Tween 20 and blocking buffer or standards were added at 80 μl/well. To the standards, 20 μl of lysis buffer was added. The samples were added to the other wells at 20 μl lysate/well. After an overnight incubation at 4° C., plates were washed twice with PBS/0.05% Tween 20. Aliquots of 100 μl secondary polyclonal antibody p53(FL-393) (Tebubio, sc-6243) at a concentration of 1 μg/ml in blocking buffer were added to each well and allowed to adhere for 2 hours at room temperature. Plates were washed three times with PBS/0.05% Tween 20. Detection antibody anti-rabbit HRP (sc-2004, Tebubio) at 0.04 μg/ml in PBS/1% BSA was added and incubated for 1 hour at room temperature. Plates were washed three times with PBS/0.05% Tween 20 and 100 μl of substrate buffer was added (substrate buffer was prepared shortly before use by adding 1 tablet of 10 mg o-phenylene diamine (OPD) from Sigma and 125 μl 3% H2O2 to 25 ml OPD buffer: 35 mM citric acid, 66 mM Na2HPO4, pH5.6). After 5 to 10 minutes, colour reaction was stopped by adding 50 μl stop buffer (1 M H2SO4) per well. The absorbance at dual wavelengths of 490/655 nm was measured using a Biorad micro plate reader and the results were then analyzed.
For each experiment, controls (containing no drug) and a blank incubation (containing no cells or drugs) were run in parallel. The blank value was subtracted from all control and sample values. For each sample, the value of p53 (in absorbance units) was expressed as the percentage of the value for p53 present in the control. […]

[4] = test system: human prostate cancer cell line DU145; assay: Alamar Blue cell proliferation assay, DU145; assay type: cell-based; settings: Homo sapiens, DU-145, DU145 cells; read-out: DU145 cell proliferation inhibition pIC50 (converted)
Method: as §1, §2, §3

Male NMRI mice = assay: Ro-4-1284 antagonism in mice; assay type: in vivo; settings: Ro-4-1284 antagonism test in mice
Method: The test is a modification of a procedure described by Colpaert et al. (1975).^3 Male NMRI mice (22±3 g) were housed in macrolon observation cages (L×W×H: 11×12×17 cm; n=3 per cage). At the start of the experiments immediately before test compound administration, the initial body temperature of the mice was measured with a precision of 0.1° C. by inserting the thermo-sensitive probe (1.0 mm diameter) of an electric thermometer (Comark) to a constant depth of 3 cm into the esophagus until a stable reading was obtained. The right eye pupil diameter was measured with a graduated microscope and expressed in 1/24 mm units. Fifteen min after test compound administration, the mice were challenged with Ro-4-1284 (10 mg/kg, s.c.). Ro-4-1284 is a reserpine-like vesicular monoamine transport (VMAT-2) inhibitor, which rapidly depletes secretory vesicles.^3,4 Fifteen, 30 and 60 min after challenge, the mice were scored for palpebral opening (0, 1, 2, 3, 4, 5) and locomotor activity (−1, 0, 1, 2, 3). At the 60-min interval, immediately after the scoring of overt behavior, the right eye pupil diameter and the esophageal temperature were measured again. Abnormal phenomena such as intensive sniffing, chewing, rearing, hyperemia, piloerection, salivation, tremors, convulsions and death were noted (the latter phenomena were also noted when occurring before Ro-4-1284 administration). Criteria for drug-induced effects: reversal of ptosis: palpebral opening score >1 at 15, 30 or 60 min (2.7, 0.5 and 0% false positive controls, respectively; n>350); induction of prostration: score −1 for locomotion at 15, 30 or 60 min (never observed in controls); reversal of hypomotility: score >0 for locomotion at 15, 30 and 60 min (2.2, 0.8 and 0% false positive controls, respectively); reversal of miosis: pupil diameter >5 units at 60 min (0.8% false positives); potentiation of hypothermia: temperature decrease (over the 1-h time interval)>9.0° C. (1.4% false positives); reversal of hypothermia: temperature decrease <3.0° C. (1.8% false positives).
According to the standard procedure, R0-4-1284 is injected 15 min following subcutaneous or oral administration and observations start 15 min later. Doses are initially given to 3 animals. When at least 2 out of the 3 animals show activity for at least one of the observations, the compound is considered active.

For `Cc1cc(Nc2ccnc3c2CCC3O)ccc1NCCc1c[nH]c2c(CCO)cccc12` (single isomer, unassigned) [Compound 13], the “H1299 cell proliferation inhibition pIC50” value ([1]; H1299 cells) was under 5, the “A2780 cell proliferation inhibition pIC50” value [2] was 6.90 and the “HCT116 cell proliferation inhibition pIC50” value ([3]; HCT116 cells) was 5.61. The “p53-elisa LAD (lowest dose giving at least 140% of the value for p53 present in the control)” value (p53 in A2780 cells) was 1.00 µM.

`COC1CCc2c(Nc3ccc(NCCc4c[nH]c5c(C(C)(C)O)cccc45)cc3)ccnc21` (centres unmarked) [Compound 8] showed an IC50 [2] of 87.1 nM, an IC50 [3] of 87.1 nM and a minimal effective concentration (p53 in A2780 cells) of 0.1 µM.

`C=Cc1ccc2c(CCNc3ccc(Nc4ccnc5c4CCC5O)cc3C)c[nH]c2c1` (centres unmarked) [Compound 14] showed an IC50 ([1]; Homo sapiens, NCI-H1299, H1299 cells, read-out: H1299 cell proliferation inhibition pIC50 (converted)) of 3980 nM, an IC50 [2] of 372 nM and an IC50 [3] of over 10000 nM. For the same compound, the IC50 [4] was 7240 nM and the minimal effective concentration (p53 in A2780 cells) was 1 µM.

In the case of `OC1CCc2c(Nc3ccc(NCCc4c[nH]c5ccccc45)cc3)ccnc21` (centres unmarked) [drawing 152, reference compound], the “drug induced neurological side effects” value (Male NMRI mice) is reported as “yes”.

For `OC1CCc2c(Nc3ccc(NCCc4c[nH]c5ccccc45)cc3)ccnc21` (centres unmarked) [drawing 153, reference compound], the “drug induced neurological side effects” value (Male NMRI mice) was “yes”.

For `Cc1cc(Nc2ccncc2)ccc1NCCc1c[nH]c2ccccc12` [reference compound], the “drug induced neurological side effects” value (Male NMRI mice) was “yes”.

With `c1ccc2c(CCNc3ccc(Nc4ccncc4)cc3)c[nH]c2c1` [reference compound] the “drug induced neurological side effects” value (Male NMRI mice) was “yes”.

For `Cc1cccc2c(CCNc3ccc(Nc4ccncc4)cc3)c[nH]c12` [reference compound], the “drug induced neurological side effects” value (Male NMRI mice) was “yes”.
